Assay [1] deals with EGFR (human) (UniProt P00533). Conditions: a431.
In assay [2] the target is EGFR (human) (UniProt P00533). Conditions: dher14.
Assay [3] addresses EGFR (human) (UniProt P00533). The settings on record: A431.

Each structure is given as a SMILES string. Where “and” joins values, the source holds several entries; their conditions need not be identical. Equal entries are not always repeated.

Sequence of EGFR (human) (P00533 whole entry, looked up): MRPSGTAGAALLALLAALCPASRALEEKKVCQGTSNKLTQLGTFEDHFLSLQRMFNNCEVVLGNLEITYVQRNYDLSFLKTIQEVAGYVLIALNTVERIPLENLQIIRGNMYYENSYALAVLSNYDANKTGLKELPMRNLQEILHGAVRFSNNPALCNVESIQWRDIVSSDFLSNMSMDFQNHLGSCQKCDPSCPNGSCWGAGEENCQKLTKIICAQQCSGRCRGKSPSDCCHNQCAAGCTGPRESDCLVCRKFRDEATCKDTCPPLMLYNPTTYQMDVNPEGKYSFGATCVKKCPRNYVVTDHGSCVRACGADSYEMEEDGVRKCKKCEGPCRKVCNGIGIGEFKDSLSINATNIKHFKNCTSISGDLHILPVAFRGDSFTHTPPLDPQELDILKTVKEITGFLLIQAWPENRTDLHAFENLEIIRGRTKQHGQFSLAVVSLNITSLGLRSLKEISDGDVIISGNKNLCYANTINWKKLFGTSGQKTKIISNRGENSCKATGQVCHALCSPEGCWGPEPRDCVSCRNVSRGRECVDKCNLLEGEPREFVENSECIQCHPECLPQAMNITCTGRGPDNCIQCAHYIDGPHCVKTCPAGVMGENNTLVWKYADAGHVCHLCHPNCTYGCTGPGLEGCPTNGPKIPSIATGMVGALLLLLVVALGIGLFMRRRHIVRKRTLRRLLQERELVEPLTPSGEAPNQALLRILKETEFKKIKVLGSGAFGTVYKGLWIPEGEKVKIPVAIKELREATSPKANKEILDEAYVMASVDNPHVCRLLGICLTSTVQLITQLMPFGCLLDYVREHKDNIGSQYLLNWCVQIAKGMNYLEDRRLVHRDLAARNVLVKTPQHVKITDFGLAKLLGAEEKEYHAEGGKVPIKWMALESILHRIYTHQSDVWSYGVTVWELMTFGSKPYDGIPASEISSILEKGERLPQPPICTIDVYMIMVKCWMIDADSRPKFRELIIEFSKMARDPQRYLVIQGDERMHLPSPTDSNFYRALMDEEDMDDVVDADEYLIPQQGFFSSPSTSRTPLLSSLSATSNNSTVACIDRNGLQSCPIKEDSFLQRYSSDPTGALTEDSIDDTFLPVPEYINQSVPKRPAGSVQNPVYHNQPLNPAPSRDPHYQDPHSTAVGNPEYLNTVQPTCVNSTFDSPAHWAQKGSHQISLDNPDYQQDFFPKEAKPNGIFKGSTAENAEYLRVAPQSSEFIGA

Regarding `COCC(=O)Nc1ccc2ncnc(Nc3cc(Cl)c(Cl)cc3F)c2c1`, the IC50 against EGFR (human) [1] is 1000 to 10000 nM; against EGFR (human) [2], over 250 nM. On to `C=CC(=O)Nc1cc2c(Nc3cccc(Br)c3)ncnc2cc1N1CCN(C)CC1`, for which the IC50 lay in the range of 500 to 13000 nM at EGFR (human) [3] and 50 to 250 nM on EGFR (human) [1]. In the case of `COCC(=O)Nc1ccc2ncnc(Nc3cccc(I)c3)c2c1`, the IC50 against EGFR (human) [1] fell in the range of 1000 to 5000 nM. For the compound `O=C(CCl)Nc1ccc2ncnc(Nc3cc(Cl)c(Cl)cc3F)c2c1`, at EGFR (human) [1], the IC50 was 5 to 25 nM and 25 to 50 nM. The compound `COc1cc2ncnc(Nc3cc(Cl)c(Cl)cc3F)c2cc1OC` returned an IC50 against EGFR (human) [1] of 3 to 5 nM. On the same count and under the same terms, the same measure for `C=CC(=O)Nc1ccc2ncnc(Nc3cc(Cl)c(Cl)cc3F)c2c1`: 6.7 to 20 nM.

Source of the values: the Kinase Knowledgebase extract (Sharma et al. 2016).
